From patent publication US20150164910A1, “ANTIVIRAL COMPOUNDS AND METHODS OF USE” (The Regents of the University of Califonia, priority 2012, published 2015)

Legend:
[1] = system: coxsackievirus B3 (CVB3); test: Cell viability assay, prevention of cell death caused by CVB3 infection; assay type: cell-based; conditions: for Selectivity index: 50% Cytotoxic concentration/50% activity concentration; for IC50 / EC (peak activity): Enterovirus B; for IC50: read-out: 50% activity concentration (IC50); for EC (peak activity): HeLa-RW cells and CVB3 at low multiplicity of infection, read-out: Peak Activity Conc.
Protocol: Procedure: Enteroviruses rapidly cause cell death, and a cell viability assay was used to examine the cytotoxicity of each compound and to identify the concentration needed to prevent cell death caused by coxsackievirus B3 (CVB3) infection.
Compounds were diluted two-fold and added to wells of 384 well plate. HeLa-RW cells were then added (cytotoxicity testing), or cells and CVB3 were added to provide a low multiplicity of infection to determine concentration of peak activity or 50% maximal concentration. Selectivity index is defined as the 50% Cytotoxic concentration/50% activity concentration

[2] = system: eGFP-expressing recombinant CVB3; assay type: cell-based, coxsackievirus B3; conditions: for % of eGFP + cells, 0 Hr: compound added 0 hr post infection at its peak activity concentration, DMSO 26.0; for % of eGFP + cells, 0 Hr / % of eGFP + cells, 1 Hr / % of eGFP + cells, 2 Hr: read 6 hr post infection; for % of eGFP + cells, 1 Hr: compound added 1 hr post infection at its peak activity concentration, DMSO 23.7; for % of eGFP + cells, 2 Hr: compound added 2 hr post infection at its peak activity concentration, DMSO 24.8; for Inhibition of infected cells: eGFP-CVB3 m.o.i=1, compound added at time of infection, 6 hr post infection, 1-(% eGFP+ cells with compound/% with DMSO only)
[3] = system: CVB3-H3; test: Plaque reduction assay, CVB3-H3 in HeLa-RW cells; assay type: cell-based, coxsackievirus B3; conditions: compound added 30 min before infection, CVB3-H3 MOI 1, HeLa-RW, 6 hours; log10(titer with DMSO only/titer with inhibitor)

Compound: COc1ccc(N(Cc2ccc(F)cc2)C(=O)c2ccco2)cc1 [Compound 57, N-(4-Fluorobenzyl)-N-(4-methoxyphenyl)-2-furamide]
- Selectivity index [1]: 16
- IC50 [1]: 3.13 µM
- EC (peak activity) [1]: 6.25 µM
- % of eGFP + cells, 0 Hr [2]: 0.0%
- % of eGFP + cells, 1 Hr [2]: 0.0%
- % of eGFP + cells, 2 Hr [2]: 0.0%
- Inhibition of infected cells [2]: 99.7%
- Log10 reduction of virus titer [3]: 4.3

Compound: Cc1ccc(-c2cc(C(=O)NN)c3ccccc3n2)s1 [Compound 25, 2-(5-Methyl-2-thienyl)-4-quinoline-carbohydrazide]
- Selectivity index [1]: 32
- IC50 [1]: 0.78 µM
- EC (peak activity) [1]: 3.13 µM
- % of eGFP + cells, 0 Hr [2]: 0.1%
- % of eGFP + cells, 1 Hr [2]: 0.1%
- % of eGFP + cells, 2 Hr [2]: 0.0%
- Inhibition of infected cells [2]: 100%
- Log10 reduction of virus titer [3]: 3.7

Compound: CCn1ncc2c(C(=O)Nc3ccc(C)c(S(N)(=O)=O)c3)cc(-c3cccs3)nc21 [Compound 19, 1-Ethyl-N-(4-methyl-3-sulfamoylphenyl)-6-(2-thienyl)-1H-pyrazolo[3,4-b] pyridine-4-carboxamide]
- Inhibition of infected cells [2]: 100%
- Log10 reduction of virus titer [3]: 4.3

Compound: Cc1ccc2cc(CN(Cc3ccc(F)cc3)C(=O)c3cccs3)c(=O)[nH]c2c1C [Compound 37, N-[(7,8-Dimethyl-2-oxo-1,2-dihydro-3-quinolinyl)methyl]-N-(4-fluorobenzyl)-2-thiophene-carboxamide]
- Inhibition of infected cells [2]: 99.7%
- Log10 reduction of virus titer [3]: 4.2

Compound: OC(c1ccccc1)c1nc2ccccc2n1-c1ccccc1 (centres unmarked) [Compound 41, Phenyl(1-phenyl-1H-benzimidazol-2-yl)methanol]
- Inhibition of infected cells [2]: 100%
- Log10 reduction of virus titer [3]: 4.1

Compound: Br.COc1ccc(C(=O)Cn2c(=N)n(Cc3ccc(C)cc3)c3ccccc32)cc1 [Compound 39, 1-[2-(4-Methoxyphenyl)-2-oxoethyl]-3-(4-methylbenzyl)-1,3-dihydro-2H-benzimidazol-2-iminium bromide]
- Inhibition of infected cells [2]: 100%
- Log10 reduction of virus titer [3]: 0.3

Compound: O=C(CCCc1nc(-c2ccccc2)no1)N1CCN(C2CCCCC2)C(=O)C1 [Compound 69, 1-Cyclohexyl-4-[4-(3-phenyl-1,2,4-oxadiazol-5-yl)butanoyl]-2-piperazinone]
- Inhibition of infected cells [2]: 96.5%
- Log10 reduction of virus titer [3]: 2.0

Compound: CC1Oc2ccc(NC(=O)c3cc(-c4cccs4)nc4ccccc34)cc2NC1=O (centres unmarked) [Compound 30, N-(2-Methyl-3-oxo-3,4-dihydro-2H-1,4-benzoxazin-6-yl)-2-(2-thienyl)-4-quinolinecarboxamide]
- Inhibition of infected cells [2]: 100%
- Log10 reduction of virus titer [3]: 4.1

Compound: Cc1nc(-c2cccc(NS(=O)(=O)c3ccc4c(c3)CCC(=O)N4)c2)cs1 [Compound 38, N-[3-(2-Methyl-1,3-thiazol-4-yl)phenyl]-2-oxo-1,2,3,4-tetrahydro-6-quinoline-sulfonamide]
- Inhibition of infected cells [2]: 59.1%
- Log10 reduction of virus titer [3]: 0.9

Compound: CCn1ncc2c(C(=O)Nc3ccc(C#N)cc3)cc(-c3cccs3)nc21 [Compound 20, N-(4-Cyanophenyl)-1-ethyl-6-(2-thienyl)-1H-pyrazolo [3,4-b]pyridine-4-carboxamide]
- Inhibition of infected cells [2]: 99.6%
- Log10 reduction of virus titer [3]: 1.9

Compound: Cc1ccc2nc(N3CCN(Cc4nnnn4Cc4ccccc4)CC3)c(C#N)cc2c1 [Compound 36, 2-{4-[(1-Benzyl-1H-tetrazol-5-yl)methyl]-1-piperazinyl}-6-methyl-3-quinoline-carbonitnle]
- Inhibition of infected cells [2]: 79.7%
- Log10 reduction of virus titer [3]: 1.0

Compound: c1ccc2[nH]c(CN3CCCC3)nc2c1 [Compound 40, 2-(1-Pyrrolidinylmethyl)-1H-benzimidazole]
- Inhibition of infected cells [2]: 100%
- Log10 reduction of virus titer [3]: 4.0

Compound: Cc1ccc(F)cc1NC(=O)c1cc(-c2cccs2)nc2c1cnn2C(C)C [Compound 2, N-(5-Fluoro-2-methylphenyl)-1-isopropyl-6-(2-thienyl)-1H-pyrazolo[3,4-b] pyridine-4-carboxamide]
- Inhibition of infected cells [2]: 99.6%
- Log10 reduction of virus titer [3]: 4.4

Compound: COc1ccc2nc(C)n3c4ccccc4c(NC(C)=O)c3c2c1 [Compound 49, N-(2-Methoxy-6-methylindolo[1,2-c]quinazolin-12-yl)acetamide]
- Inhibition of infected cells [2]: 17.2%
- Log10 reduction of virus titer [3]: 1.0

Compound: CCC(C)(C)Nc1c(-c2ccc(OC)c(CN3CCOCC3)c2)nc2cnccn12 [Compound 60, 2-[4-Methoxy-3-(4-morpholinylmethyl)phenyl]-N-(2-methyl-2-butanyl) imidazo[1,2-a]pyrazin-3-amine]
- Inhibition of infected cells [2]: 100%
- Log10 reduction of virus titer [3]: 1.8

Compound: CCS(=O)(=O)c1ccc(NC(=O)c2cc(-c3ccccc3)nc3ccccc23)cc1 [Compound 27, N-[4-(Ethylsulfonyl)phenyl]-2-phenyl-4-quinoline-carboxamide]
- Inhibition of infected cells [2]: 89.6%
- Log10 reduction of virus titer [3]: 3.4

Compound: Cc1ccc([S+]([O-])Nc2cccc(C(=O)O)c2)cc1 (centres unmarked) [Compound 55, 3-{[(4-Methylphenyl)sulfinyl]amino} benzoic acid]
- Inhibition of infected cells [2]: 98.4%
- Log10 reduction of virus titer [3]: 2.5

Compound: CC(C)c1cc(C(=O)Nc2ccccc2N2CCN(C)CC2)c2cnn(C(C)C)c2n1 [Compound 15, 1,6-Diisopropyl-N-[2-(4-methyl-1-piperazinyl)phenyl)-1H-pyrazolo[3,4-b]pyridine-4-carboxamide]
- Inhibition of infected cells [2]: 100%
- Log10 reduction of virus titer [3]: 2.4

Compound: O=C(N/N=C/c1ccc(O)cc1)c1cc(-c2ccccc2)nc2ccccc12 [Compound 29, N′-[(E)-(4-Hydroxyphenyl)methylene]-2-phenyl-4-quinoline-carbohydrazide]
- Inhibition of infected cells [2]: 100%
- Log10 reduction of virus titer [3]: 3.8

Compound: Cc1ccc(S(C)(=O)=O)cc1NC(=O)c1cc(C2CC2)nc2c1cnn2C(C)C [Compound 12, 6-Cyclopropyl-1-isopropyl-N-[2-methyl-5-(methylsulfonyl)phenyl]-1H-pyrazolo[3,4-b] pyridine-4-carboxamide]
- Inhibition of infected cells [2]: 100%
- Log10 reduction of virus titer [3]: 4.2

Compound: CC/C(C)=N\NC(=O)c1cc(-c2cccs2)nc2ccccc12 [Compound 24, N′-[(2Z)-2-Butanylidene]-2-(2-thienyl)-4-quinoline-carbohydrazide]
- Inhibition of infected cells [2]: 100%
- Log10 reduction of virus titer [3]: 4.0

Compound: O=C(c1ccco1)N(Cc1ccccc1)Cc1ccccn1 [Compound 58, N-Benzyl-N-(2-pyridinylmethyl)-2-furamide]
- Inhibition of infected cells [2]: 91.7%
- Log10 reduction of virus titer [3]: 2.4

Compound: NC(=O)C1CCN(CC(=O)N2N=C3/C(=C/c4cccs4)CCCC3C2c2cccs2)CC1 (centres unmarked) [Compound 63, 1-{2-Oxo-2-[(7E)-3-(2-thienyl)-7-(2-thienylmethylene)-3,3a,4,5,6,7-hexahydro-2H-indazol-2-yl]ethyl}-4-piperidine-carboxamide]
- Inhibition of infected cells [2]: 100%
- Log10 reduction of virus titer [3]: 4.2

Compound: CCN(CC)CCNC1CCCc2c1[nH]c1ccc(C)cc21.Cl (centres unmarked) [Compound 66, N,N-Diethyl-2-[(6-methyl-2,3,4,9-tetrahydro-1H-carbazol-1-yl)amino] ethanaminium chloride]
- Inhibition of infected cells [2]: 99.6%
- Log10 reduction of virus titer [3]: 4.4

Compound: Cl.OCCN1CCN(CC/C=C2/c3ccccc3Sc3ccc(Cl)cc32)CC1 [Compound 71, 2-[4-[3-(2-chlorothioxanthen-9-ylidene)propyl]piperazin-1-yl]ethanol hydrochloride, reference compound]
- Inhibition of infected cells [2]: 99.1%
- Log10 reduction of virus titer [3]: 4.2

Compound: COc1ccc(NC(=O)c2cc(-c3cccs3)nc3c2cnn3C(C)C)cc1 [Compound 7, 1-Isopropyl-N-(4-methoxyphenyl)-6-(2-thienyl)-1H-pyrazolo [3,4-b]pyridine-4-carboxamide]
- Inhibition of infected cells [2]: 99.5%
- Log10 reduction of virus titer [3]: 4.3

Compound: CCCCNCC(=O)Nc1ccccc1N1CCCCC1 [Compound 65, N^2-Butyl-N-[2-(1-piperidinyl)phenyl] glycinamide]
- Inhibition of infected cells [2]: 36.2%
- Log10 reduction of virus titer [3]: −0.4

Compound: CC(C)n1ncc2c(C(=O)Nc3ccc(F)cc3Cl)cc(-c3cccs3)nc21 [Compound 6, N-(2-Chloro-4-fluorophenyl)-1-isopropyl-6-(2-thienyl)-1H-pyrazolo[3,4-b] pyridine-4-carboxamide]
- Inhibition of infected cells [2]: 99.5%
- Log10 reduction of virus titer [3]: 4.3

Compound: O=C(N/N=C1/c2ccccc2-c2nc3ccccc3nc21)c1cccnc1 [Compound 51, N′-[(11Z)-11H-Indeno[1,2-b]quinoxalin-11-ylidene] nicotinohydrazide]
- Inhibition of infected cells [2]: 1.6%
- Log10 reduction of virus titer [3]: 0.1

Compound: COc1cccc(NC(=O)c2cc(-c3cccs3)nc3c2cnn3C(C)C)c1 [Compound 8, 1-Isopropyl-N-(3-methoxyphenyl)-6-(2-thienyl)-1H-pyrazolo [3,4-b]pyridine-4-carboxamide]
- Inhibition of infected cells [2]: 99.2%
- Log10 reduction of virus titer [3]: 4.4

Compound: COc1ccc(NC(=O)c2nn(Cc3ccccc3)c(=O)c3ccccc23)cn1 [Compound 64, 3-Benzyl-N-(6-methoxy-3-pyridinyl)-4-oxo-3,4-dihydro-1-phthalazine-carboxamide]
- Inhibition of infected cells [2]: 100%
- Log10 reduction of virus titer [3]: 4.2
